Test results reported in ChEMBL document CHEMBL1201862, “PubChem BioAssay data set” (2004).
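Interpolation was linear, between the two tested concentrations surrounding the appropriate level; five concentrations were tested over 48 hours in 96-well plates. Here, GI50 denotes the concentration required for 50% inhibition of growth.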 Activity calls are given as the source filed them. No stated cut-off is given here; in the data, active = GI50 up to about 1.1 µM and inactive = higher.

Key:
Assay in all cases: growth of human tumour cells (NCI), 48 h
NCI-H460 = system: NCI-H460
SK-MEL-5 = system: SK-MEL-5
SF-295 = system: SF-295
A549 = system: A549
M19-MEL = system: M19-MEL
MOLT-4 = system: MOLT-4
HOP-62 = system: HOP-62
DMS-114 = system: DMS-114
UACC-62 = system: UACC-62
UACC-257 = system: UACC-257
SF-268 = system: SF-268
HL-60 = system: HL-60
NCI-H23 = system: NCI-H23
LOX IMVI = system: LOX IMVI
CCRF-CEM = system: CCRF-CEM
Malme-3M = system: Malme-3M
COLO 205 = system: COLO 205
SNB-78 = system: SNB-78
LXFL 529 = system: LXFL 529
SNB-75 = system: SNB-75
U-251 = system: U-251
OVCAR-3 = system: OVCAR-3
ACHN = system: ACHN
SNB-19 = system: SNB-19
TK-10 = system: TK-10
UO-31 = system: UO-31
M14 = system: M14
SW-620 = system: SW-620
HOP-92 = system: HOP-92
NCI-H522 = system: NCI-H522
RXF 393 = system: RXF 393
A498 = system: A498
HCT-116 = system: HCT-116
K562 = system: K562
HCT-15 = system: HCT-15
SK-OV-3 = system: SK-OV-3
IGROV-1 = system: IGROV-1
CAKI-1 = system: CAKI-1
OVCAR-5 = system: OVCAR-5
SK-MEL-2 = system: SK-MEL-2
RPMI-8226 = system: RPMI-8226
KM12 = system: KM12
EKVX = system: EKVX
XF498 = system: XF498
SK-MEL-28 = system: SK-MEL-28
OVCAR-8 = system: OVCAR-8
786-0 = system: 786-0
DMS-273 = system: DMS-273
SN12C = system: SN12C
OVCAR-4 = system: OVCAR-4
SF-539 = system: SF-539
NCI-H226 = system: NCI-H226
DLD-1 = system: DLD-1
MCF7 = system: MCF7
MDA-N = system: MDA-N
BT-549 = system: BT-549
HT-29 = system: HT-29
DU-145 = system: DU-145
MDA-MB-231 = system: MDA-MB-231
SR = system: SR
MDA-MB-435 = system: MDA-MB-435
HCC 2998 = system: HCC 2998
T47D = system: T47D
Hs-578T = system: Hs-578T
PC-3 = system: PC-3
NCI/ADR-RES = system: NCI/ADR-RES

Measured: GI50

CC(=O)N/N=C1\CC(C)(C)C2CCC1C2 (stereo not given)
inactive: NCI-H460 > 100 µM | SK-MEL-5 > 100 µM | SF-295 > 100 µM | A549 > 100 µM | M19-MEL > 100 µM | MOLT-4 > 100 µM | HOP-62 > 100 µM | DMS-114 > 100 µM | UACC-62 > 100 µM | UACC-257 > 100 µM | SF-268 > 100 µM | HL-60 > 100 µM | NCI-H23 > 100 µM | LOX IMVI > 100 µM | CCRF-CEM > 100 µM | Malme-3M > 100 µM | COLO 205 > 100 µM | SNB-78 > 100 µM | LXFL 529 > 100 µM | SNB-75 > 100 µM | U-251 > 100 µM | OVCAR-3 > 100 µM | ACHN > 100 µM | SNB-19 > 100 µM | TK-10 > 100 µM | UO-31 > 100 µM | M14 > 100 µM | SW-620 > 100 µM | HOP-92 > 100 µM | NCI-H522 > 100 µM | RXF 393 > 100 µM | A498 > 100 µM | HCT-116 > 100 µM | K562 > 100 µM | SK-OV-3 > 100 µM | IGROV-1 > 100 µM | CAKI-1 > 100 µM | OVCAR-5 > 100 µM | SK-MEL-2 > 100 µM | RPMI-8226 > 100 µM | KM12 > 100 µM | EKVX > 100 µM | XF498 > 100 µM | SK-MEL-28 > 100 µM | OVCAR-8 > 100 µM | 786-0 > 100 µM | DMS-273 > 100 µM | SN12C > 100 µM | OVCAR-4 > 100 µM | SF-539 > 100 µM
> 100 µM: HCT-15

COc1cc(C2c3cc4c(cc3[C@@H](NCCN(C)C)C3COC(=O)[C@H]23)OCO4)cc(OC)c1O (stereo not given in full)
inactive: LXFL 529 1.82 µM | OVCAR-3 1.34 µM | DLD-1 1.46 µM | TK-10 1.69 µM | OVCAR-4 3.09 µM
active: NCI-H460 < 0.01 µM | SK-MEL-5 0.133 µM | A549 0.0207 µM | M19-MEL 0.91 µM | HL-60 0.0127 µM | Malme-3M 0.36 µM | NCI-H226 0.0156 µM | SNB-75 0.13 µM | U-251 0.0687 µM | SNB-19 0.598 µM | UO-31 0.284 µM | M14 0.255 µM | SW-620 0.296 µM | HOP-92 0.0303 µM | K562 0.407 µM | RPMI-8226 0.29 µM | KM12 0.931 µM | XF498 0.2 µM | SK-MEL-28 0.309 µM | SF-539 0.0585 µM

NC(=O)c1cn(C2OC(CO)C(O)C2O)c2ncnc(N)c12 (stereo not given)
active: MCF7 90.2 nM | SNB-75 0.0422 µM | IGROV-1 0.0885 µM | OVCAR-8 0.139 µM | DMS-273 0.0381 µM

O=C(/C=C/c1ccccc1)c1ccccc1 [CHALCONE]
active: MOLT-4 0.938 µM
inactive: NCI-H460 > 9.55 µM | SK-MEL-5 > 10 µM | SF-295 > 10 µM | A549 > 10 µM | HOP-62 > 10 µM | MDA-N > 10 µM | BT-549 > 10 µM | UACC-62 > 10 µM | UACC-257 > 10 µM | SF-268 > 10 µM | HL-60 4.07 µM | NCI-H23 > 10 µM | LOX IMVI 1.9 µM | CCRF-CEM > 4.83 µM | Malme-3M > 10 µM | COLO 205 > 10 µM | NCI-H226 > 10 µM | HT-29 6.07 µM | MCF7 2700 nM | SNB-75 > 10 µM | U-251 > 10 µM | OVCAR-3 > 10 µM | ACHN > 10 µM | SNB-19 > 10 µM | TK-10 > 10 µM | DU-145 > 10 µM | MDA-MB-231 > 10 µM | SR > 6.58 µM | UO-31 > 10 µM | M14 > 10 µM | MDA-MB-435 > 8.13 µM | SW-620 3.34 µM | HOP-92 > 10 µM | NCI-H522 > 10 µM | RXF 393 > 10 µM | A498 > 10 µM | HCT-116 2.01 µM | K562 > 4.84 µM | SK-OV-3 > 10 µM | IGROV-1 > 10 µM | CAKI-1 > 10 µM | OVCAR-5 > 10 µM | SK-MEL-2 > 10 µM | RPMI-8226 > 4.85 µM | KM12 3.78 µM | HCC 2998 > 10 µM | T47D > 10 µM | EKVX > 10 µM | Hs-578T > 10 µM | SK-MEL-28 > 10 µM | PC-3 > 10 µM | OVCAR-8 > 10 µM | 786-0 > 10 µM | SN12C > 10 µM | OVCAR-4 > 10 µM | NCI/ADR-RES > 10 µM | SF-539 > 10 µM
> 10 µM: HCT-15
